Test results published in the supplement of paper PMC10307832.

Columns and labels:
Test in all cases: relative viability (nuclei count vs DMSO), 5 days (fraction); higher = more cells survive
[1] = compound: CCN1CCC(CC1)N2C=C(N=N2)CNC3=CC4=C(C(=CN=C4C(=C3)Cl)C#N)NC5=CC(=C(C=C5)F)Cl [KIN001-266]
Outline: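 Viability is treated-well nuclei as a fraction of vehicle-well nuclei, reported as the median across plates. Before counting, lung cancer cell lines were kept overnight at 37 °C in 1536-well plates, pinned with five √10-spaced library-drug doses on vehicle-anchored plates, and left 5 days without medium change, then fixed, permeabilised and Hoechst-stained in one step, imaged at 4× and counted by MetaXpress. A plate passed only if control CV was below 25% and at least one doubling occurred.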

[2] = compound: CCN1CCC(CC1)N2C=C(N=N2)CNC3=CC4=C(C(=CN=C4C(=C3)Cl)C#N)NC5=CC(=C(C=C5)F)Cl [KIN001-266] + CC1(C)CCC(c2ccc(Cl)cc2)=C(CN2CCN(c3ccc(C(=O)NS(=O)(=O)c4ccc(N[C@H](CCN5CCOCC5)CSc5ccccc5)c(S(=O)(=O)C(F)(F)F)c4)cc3)CC2)C1 [Navitoclax] (partner 0.5 µM)
Outline: (§1)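 Dosing by pin tool came one day after lung cancer cell lines were seeded in 1536-well plates, using either one drug or a fixed anchor-drug dose plus five library-drug doses (not always all listed) in √10 steps. After 5 days, nuclei were counted on 4× images. Relative viability is treated-well nuclei count divided by vehicle-well nuclei count, and values are medians of duplicate plates.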

[3] = compound: CCN1CCC(CC1)N2C=C(N=N2)CNC3=CC4=C(C(=CN=C4C(=C3)Cl)C#N)NC5=CC(=C(C=C5)F)Cl [KIN001-266] + COc1cc2c(Oc3ccc(NC(=O)C4(C(=O)Nc5ccc(F)cc5)CC4)cc3F)ccnc2cc1OCCCN1CCOCC1 [Foretinib] (partner 0.25 µM)
Outline: as §1

[4] = compound: CCN1CCC(CC1)N2C=C(N=N2)CNC3=CC4=C(C(=CN=C4C(=C3)Cl)C#N)NC5=CC(=C(C=C5)F)Cl [KIN001-266] + CS(=O)(=O)CCNCc1ccc(-c2ccc3ncnc(Nc4ccc(OCc5cccc(F)c5)c(Cl)c4)c3c2)o1 [Lapatinib] (partner 2 µM)
Outline: as §1

[5] = compound: CCN1CCC(CC1)N2C=C(N=N2)CNC3=CC4=C(C(=CN=C4C(=C3)Cl)C#N)NC5=CC(=C(C=C5)F)Cl [KIN001-266] + CS(=O)(=O)N1CCN(Cc2cc3nc(-c4cccc5[nH]ncc45)nc(N4CCOCC4)c3s2)CC1 [Pictilisib] (partner 1 µM)
Outline: as §1

[6] = compound: CCN1CCC(CC1)N2C=C(N=N2)CNC3=CC4=C(C(=CN=C4C(=C3)Cl)C#N)NC5=CC(=C(C=C5)F)Cl [KIN001-266] + C[C@@H](Oc1cc(-c2cnn(C3CCNCC3)c2)cnc1N)c1c(Cl)ccc(F)c1Cl [Crizotinib] (partner 1 µM)
Outline: as §1

[7] = compound: CCN1CCC(CC1)N2C=C(N=N2)CNC3=CC4=C(C(=CN=C4C(=C3)Cl)C#N)NC5=CC(=C(C=C5)F)Cl [KIN001-266] + C[C@]1(O)C[C@@H](c2nc(-c3ccc4ccc(-c5ccccc5)nc4c3)c3c(N)nccn32)C1 [Linsitinib] (partner 1 µM)
Outline: as §1

[8] = compound: CCN1CCC(CC1)N2C=C(N=N2)CNC3=CC4=C(C(=CN=C4C(=C3)Cl)C#N)NC5=CC(=C(C=C5)F)Cl [KIN001-266] + Cc1nc(NC(=O)N2CCC[C@H]2C(N)=O)sc1-c1ccnc(C(C)(C)C(F)(F)F)c1 [Alpelisib] (partner 2 µM)
Outline: as §1

[9] = compound: CCN1CCC(CC1)N2C=C(N=N2)CNC3=CC4=C(C(=CN=C4C(=C3)Cl)C#N)NC5=CC(=C(C=C5)F)Cl [KIN001-266] + N=C(N)NC(=N)NCCc1ccccc1 [Phenformin] (partner 250 µM)
Outline: as §1

[10] = compound: CCN1CCC(CC1)N2C=C(N=N2)CNC3=CC4=C(C(=CN=C4C(=C3)Cl)C#N)NC5=CC(=C(C=C5)F)Cl [KIN001-266] + Nc1ncn([C@H]2C[C@H](O)[C@@H](CO)O2)c(=O)n1 [Decitabine] (partner 2 µM)
Outline: as §1

[11] = compound: CCN1CCC(CC1)N2C=C(N=N2)CNC3=CC4=C(C(=CN=C4C(=C3)Cl)C#N)NC5=CC(=C(C=C5)F)Cl [KIN001-266] + O=C(c1cc(Cc2n[nH]c(=O)c3ccccc23)ccc1F)N1CCN(C(=O)C2CC2)CC1 [Olaparib] (partner 8 µM)
Outline: as §1

## A549
[1]; 0.08 µM
  relative viability: 1.02
[1]; 0.253 µM
  relative viability: 0.974
[1]; 0.8 µM
  relative viability: 1.03
[1]; 2.53 µM
  relative viability: 0.891
[1]; 8 µM
  relative viability: 0.939
[2]; first compound 0.08 µM
  relative viability: 1.26
[2]; first compound 0.253 µM
  relative viability: 1.17
[2]; first compound 0.8 µM
  relative viability: 1.27
[2]; first compound 2.53 µM
  relative viability: 1.3
[2]; first compound 8 µM
  relative viability: 1.2
[3]; first compound 0.08 µM
  relative viability: 0.95
[3]; first compound 0.253 µM
  relative viability: 0.854
[3]; first compound 0.8 µM
  relative viability: 1.04
[3]; first compound 2.53 µM
  relative viability: 0.87
[3]; first compound 8 µM
  relative viability: 0.926
[4]; first compound 0.08 µM
  relative viability: 1.03
[4]; first compound 0.253 µM
  relative viability: 0.991
[4]; first compound 0.8 µM
  relative viability: 1.05
[4]; first compound 2.53 µM
  relative viability: 0.924
[4]; first compound 8 µM
  relative viability: 0.84
[5]; first compound 0.08 µM
  relative viability: 0.584
[5]; first compound 0.253 µM
  relative viability: 0.527
[5]; first compound 0.8 µM
  relative viability: 0.519
[5]; first compound 2.53 µM
  relative viability: 0.584
[5]; first compound 8 µM
  relative viability: 0.393
[6]; first compound 0.08 µM
  relative viability: 0.771
[6]; first compound 0.253 µM
  relative viability: 0.733
[6]; first compound 0.8 µM
  relative viability: 0.83
[6]; first compound 2.53 µM
  relative viability: 0.739
[6]; first compound 8 µM
  relative viability: 0.693
[7]; first compound 0.08 µM
  relative viability: 0.604
[7]; first compound 0.253 µM
  relative viability: 0.55
[7]; first compound 0.8 µM
  relative viability: 0.562
[7]; first compound 2.53 µM
  relative viability: 0.668
[7]; first compound 8 µM
  relative viability: 0.592
[8]; first compound 0.08 µM
  relative viability: 1.01
[8]; first compound 0.253 µM
  relative viability: 0.782
[8]; first compound 0.8 µM
  relative viability: 0.898
[8]; first compound 2.53 µM
  relative viability: 0.758
[8]; first compound 8 µM
  relative viability: 0.701
[9]; first compound 0.08 µM
  relative viability: 0.22
[9]; first compound 0.253 µM
  relative viability: 0.178
[9]; first compound 0.8 µM
  relative viability: 0.131
[9]; first compound 2.53 µM
  relative viability: 0.14
[9]; first compound 8 µM
  relative viability: 0.14
[10]; first compound 0.08 µM
  relative viability: 0.401
[10]; first compound 0.253 µM
  relative viability: 0.207
[10]; first compound 0.8 µM
  relative viability: 0.24
[10]; first compound 2.53 µM
  relative viability: 0.35
[10]; first compound 8 µM
  relative viability: 0.223
[11]; first compound 0.08 µM
  relative viability: 0.367
[11]; first compound 0.253 µM
  relative viability: 0.279
[11]; first compound 0.8 µM
  relative viability: 0.297
[11]; first compound 2.53 µM
  relative viability: 0.347
[11]; first compound 8 µM
  relative viability: 0.305
